Measured values reported in PubChem BioAssay AID328 (DTP/NCI, 2004).
Values joined by “and” are separate entries in the source; they are usually repeats but may differ in a detail not shown here. Equal values may be shown once. Toxic doses and inconclusive results are not listed.

Test system: BDF1 mice, P388 leukemia ip, median survival T/C
Assay: NCI In Vivo Anticancer Drug Screen. Data for tumor model P388 Leukemia (intraperitoneal) in B6D2F1 (BDF1) mice
Details: endpoint: median survival time, higher = longer survival
Summary of the method: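 T/C = treated-group survival ÷ vehicle-control survival; tumour transplanted into mice before dosing.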

[1] = dose: 50.0 mg/kg/injection, schedule: Q04DX003 (ip), vehicle: saline
[2] = dose: 6.25 mg/kg/injection, schedule: Q01DX009 (ip), vehicle: saline with Tween-80
[3] = dose: 12.5 mg/kg/injection, schedule: Q01DX009 (ip), vehicle: saline with Tween-80
[4] = dose: 75.0 mg/kg/injection, schedule: Q04DX003 (ip), vehicle: saline
[5] = dose: 200.0 mg/kg/injection, schedule: Q01DX009 (ip), vehicle: saline
[6] = dose: 50.0 mg/kg/injection, schedule: Q01DX009 (ip), vehicle: saline with Tween-80
[7] = dose: 25.0 mg/kg/injection, schedule: Q01DX009 (ip), vehicle: saline with Tween-80
[8] = dose: 50.0 mg/kg/injection, schedule: Q04DX003 (ip), vehicle: saline with Tween-80
[9] = dose: 100.0 mg/kg/injection, schedule: Q01DX009 (ip), vehicle: saline with Tween-80
[10] = dose: 100.0 mg/kg/injection, schedule: Q04DX003 (ip), vehicle: saline with Tween-80
[11] = dose: 200.0 mg/kg/injection, schedule: Q01DX009 (ip), vehicle: saline with Tween-80
[12] = dose: 200.0 mg/kg/injection, schedule: Q04DX003 (ip), vehicle: saline with Tween-80
[13] = dose: 400.0 mg/kg/injection, schedule: Q01DX009 (ip), vehicle: saline with Tween-80
[14] = dose: 100.0 mg/kg/injection, schedule: Q04DX003 (ip), vehicle: saline

SMILES: COc1ccc(C(=O)N/N=C(\C)[C@]2(O)Cc3c(O)c4c(c(O)c3[C@@H](OC3CC(N)C(O)C(C)O3)C2)C(=O)c2c(OC)cccc2C4=O)cc1 (some centres undefined)
- T/C (dose: 0.25 mg/kg/injection, schedule: Q01DX009 (ip), vehicle: water): 117 % of control and 123 % of control
- T/C (dose: 1.0 mg/kg/injection, schedule: Q01DX009 (ip), vehicle: water): 156 % of control and 212 % of control
- T/C (dose: 2.0 mg/kg/injection, schedule: Q01DX009 (ip), vehicle: water): 275 % of control and 156 % of control
- T/C (dose: 4.0 mg/kg/injection, schedule: Q01DX009 (ip), vehicle: water): 244 % of control and 107 % of control
- T/C (dose: 8.0 mg/kg/injection, schedule: Q01DX009 (ip), vehicle: water): 107 % of control

SMILES: CC(C)OC(=O)Oc1cccc2c1C(=O)c1ccccc1C2=O
- T/C (dose: 100.0 mg/kg/injection, schedule: Q04DX003 (ip), vehicle: Klucel (hydroxypropylcellulose) (HPC)): 104 % of control
- T/C (dose: 200.0 mg/kg/injection, schedule: Q04DX003 (ip), vehicle: Klucel (hydroxypropylcellulose) (HPC)): 108 % of control
- T/C (dose: 400.0 mg/kg/injection, schedule: Q04DX003 (ip), vehicle: Klucel (hydroxypropylcellulose) (HPC)): 104 % of control

SMILES: CCOC(=O)c1cnc2c(cnn2CC)c1NN=C(C)C
- T/C [1]: 122 % of control
- T/C (dose: 200.0 mg/kg/injection, schedule: Q04DX003 (ip), vehicle: saline): 111 % of control

SMILES: [Cl][Hg][c]1ccc2ccccc2c1
- T/C (dose: 12.5 mg/kg/injection, schedule: Q01DX009 (ip), vehicle: gum acacia): 112 % of control

SMILES: CCC[CH2][Sn]([I])([CH2]I)[CH2]CCC
- T/C (dose: 1.56 mg/kg/injection, schedule: Q01DX009 (ip), vehicle: saline with Tween-80): 102 % of control
- T/C (dose: 3.12 mg/kg/injection, schedule: Q01DX009 (ip), vehicle: saline with Tween-80): 106 % of control
- T/C [2]: 123 % of control

SMILES: CN(C)C1CCc2[nH]c3c(F)cc(F)cc3c2C1 (centres undefined)
- T/C (dose: 3.13 mg/kg/injection, schedule: Q01DX009 (ip), vehicle: saline with Tween-80): 95 % of control
- T/C [2]: 103 % of control
- T/C [3]: 101 % of control

SMILES: CNC/C(C)=C/Br
- T/C (dose: 12.5 mg/kg/injection, schedule: Q01DX009 (ip), vehicle: acetone): 100 % of control
- T/C (dose: 18.75 mg/kg/injection, schedule: Q04DX003 (ip), vehicle: saline): 100 % of control
- T/C (dose: 25.0 mg/kg/injection, schedule: Q01DX009 (ip), vehicle: acetone): 104 % of control
- T/C (dose: 37.5 mg/kg/injection, schedule: Q04DX003 (ip), vehicle: saline): 104 % of control
- T/C (dose: 50.0 mg/kg/injection, schedule: Q01DX009 (ip), vehicle: acetone): 104 % of control
- T/C (dose: 50.0 mg/kg/injection, schedule: Q01DX009 (ip), vehicle: saline): 100 % of control
- T/C (dose: 63.75 mg/kg/injection, schedule: Q01DX001 (ip), vehicle: saline): 100 % of control
- T/C (dose: 75.0 mg/kg/injection, schedule: Q01DX009 (ip), vehicle: saline): 95 % of control
- T/C [4]: 95 % of control
- T/C (dose: 100.0 mg/kg/injection, schedule: Q01DX009 (ip), vehicle: saline): 115 % of control
- T/C (dose: 110.0 mg/kg/injection, schedule: Q04DX003 (ip), vehicle: saline): 110 % of control
- T/C (dose: 127.5 mg/kg/injection, schedule: Q01DX001 (ip), vehicle: saline): 100 % of control
- T/C (dose: 170.0 mg/kg/injection, schedule: Q04DX003 (ip), vehicle: saline): 110 % of control
- T/C [5]: 105 % of control
- T/C (dose: 255.0 mg/kg/injection, schedule: Q04DX003 (ip), vehicle: saline): 105 % of control

SMILES: OC(CC1CCCCN1)c1cc2c(Cl)cc(Cl)cc2c2cc(C(F)(F)F)ccc12 (centres undefined)
- T/C [6]: 114 % of control

SMILES: O=Cc1nccn1Cc1ccccc1
- T/C [3]: 116 % of control
- T/C (dose: 12.5 mg/kg/injection, schedule: Q04DX003 (ip), vehicle: saline with Tween-80): 100 % of control
- T/C [7]: 100 % of control
- T/C (dose: 25.0 mg/kg/injection, schedule: Q04DX003 (ip), vehicle: saline with Tween-80): 103 % of control
- T/C [6]: 108 % of control
- T/C [8]: 96 % of control
- T/C [9]: 105 % of control
- T/C [10]: 106 % of control
- T/C [11]: 98 % of control
- T/C [12]: 101 % of control and 106 % of control
- T/C (dose: 300.0 mg/kg/injection, schedule: Q04DX003 (ip), vehicle: saline with Tween-80): 103 % of control
- T/C [13]: 107 % of control

SMILES: CN(C)[C@@H]1C(=O)C(C(N)=O)=C(O)[C@@]2(O)C(=O)C3=C(O)c4c(O)ccc(Cl)c4[C@@](C)(O)[C@H]3C[C@@H]12
- T/C (dose: 132.0 mg/kg/injection, schedule: Q01DX009 (ip), vehicle: saline): 122 % of control
- T/C [5]: 122 % of control

SMILES: COc1ccccc1NC(=O)Nc1ccc(C(=O)OCC(C)C)cc1
- T/C [8]: 108 % of control
- T/C [10]: 91 % of control
- T/C [12]: 100 % of control

SMILES: CN=C(N)c1ccc(N=C(N)c2ccc(C(N)=Nc3ccc(C(N)=NC)cc3)cc2)cc1
- T/C (dose: 13.2 mg/kg/injection, schedule: Q01DX009 (ip), vehicle: saline): 150 % of control and 172 % of control
- T/C (dose: 20.0 mg/kg/injection, schedule: Q01DX009 (ip), vehicle: saline): 240 % of control and 218 % of control
- T/C (dose: 30.0 mg/kg/injection, schedule: Q01DX009 (ip), vehicle: saline): 268 % of control and 218 % of control

SMILES: COC(=O)C1OC(C)(C)OC1C(=O)OC (centres undefined)
- T/C (dose: 100.0 mg/kg/injection, schedule: Q04DX002 (ip), vehicle: saline with Tween-80): 90 % of control
- T/C (dose: 200.0 mg/kg/injection, schedule: Q04DX002 (ip), vehicle: saline with Tween-80): 97 % of control
- T/C (dose: 400.0 mg/kg/injection, schedule: Q04DX002 (ip), vehicle: saline with Tween-80): 90 % of control

SMILES: c1ccc(C2=NC(CCN3CCCCC3)(c3ccccc3)SC2CN2CCCCC2)cc1 (centres undefined)
- T/C (dose: 50.0 mg/kg/injection, schedule: Q01DX005 (ip), vehicle: Klucel (hydroxypropylcellulose) (HPC)): 101 % of control
- T/C (dose: 100.0 mg/kg/injection, schedule: Q01DX005 (ip), vehicle: Klucel (hydroxypropylcellulose) (HPC)): 105 % of control
- T/C (dose: 200.0 mg/kg/injection, schedule: Q01DX005 (ip), vehicle: Klucel (hydroxypropylcellulose) (HPC)): 104 % of control

SMILES: CC(C)=CCc1cc(O)ccc1O
- T/C [2]: 108 % of control
- T/C [7]: 112 % of control
- T/C [6]: 101 % of control

SMILES: Cc1cccnc1N1CCNC1=O
- T/C (dose: 25.0 mg/kg/injection, schedule: Q04DX003 (ip), vehicle: saline): 90 % of control
- T/C [1]: 90 % of control
- T/C [14]: 100 % of control

SMILES: S=C1SCCS1
- T/C [7]: 100 % of control
- T/C [6]: 95 % of control
- T/C [9]: 104 % of control
- T/C [14]: 91 % of control

SMILES: C[N+](C)(C)CCOC(=O)c1ccccc1
- T/C [9]: 109 % of control
- T/C [11]: 117 % of control
- T/C [13]: 102 % of control

SMILES: Cn1cnc(C(N)=S)c1N
- T/C [4]: 112 % of control
- T/C (dose: 100.0 mg/kg/injection, schedule: Q01DX001 (ip), vehicle: Klucel (hydroxypropylcellulose) (HPC)): 100 % of control
- T/C (dose: 150.0 mg/kg/injection, schedule: Q04DX003 (ip), vehicle: saline): 100 % of control
- T/C (dose: 200.0 mg/kg/injection, schedule: Q01DX001 (ip), vehicle: Klucel (hydroxypropylcellulose) (HPC)): 95 % of control
- T/C (dose: 300.0 mg/kg/injection, schedule: Q04DX003 (ip), vehicle: saline): 112 % of control
- T/C (dose: 400.0 mg/kg/injection, schedule: Q01DX001 (ip), vehicle: Klucel (hydroxypropylcellulose) (HPC)): 100 % of control

SMILES: COc1cc([C@@H]2c3cc4c(cc3C[C@H]3COC(=O)[C@@H]32)OCO4)cc(OC)c1OC
- T/C (dose: 1.25 mg/kg/injection, schedule: Q01DX010 (ip), vehicle: saline): 109 % of control
- T/C (dose: 2.5 mg/kg/injection, schedule: Q01DX001 (ip), vehicle: other): 105 % of control
- T/C (dose: 2.5 mg/kg/injection, schedule: Q01DX010 (ip), vehicle: saline): 118 % of control
- T/C (dose: 5.0 mg/kg/injection, schedule: Q01DX001 (ip), vehicle: other): 115 % of control
- T/C (dose: 10.0 mg/kg/injection, schedule: Q01DX010 (ip), vehicle: other): 154 % of control
- T/C (dose: 20.0 mg/kg/injection, schedule: Q01DX010 (ip), vehicle: other): 95 % of control
